Here are results for eleven compounds from patent US20260167619A2, “INDOLINE COMPOUNDS AND DERIVATIVES AS EGFR INHIBITORS” (BeOne Medicines I GmbH, priority 2020, published 2026).

One assay addresses BaF3-Del_TM_CS cells (Homo sapiens, UniProt P00533, T790M/C797S, cells depend on it, form not given). Description: Cell antiproliferation assay (CellTiter-Glo), BaF3-Del_TM_CS. The format is cell-based. To be noted: 48 h treatment, read-out: BaF3-Del_TM_CS IC50. In outline: (§1)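 Viability read as CellTiter-Glo luminescence after 48 h compound treatment at 0.2% DMSO final. Eight concentrations, 5-fold steps, made as 500× DMSO stocks starting at 5 mM. Percent inhibition curve-fitted (Hill slope, top, bottom) to give IC50.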
In general terms: ATP-based viability assays read luminescence as a measure of living cells.

For a further assay, the target named is BaF3-LR_TM_CS cells (Homo sapiens, UniProt P00533, T790M/C797S/L858R, cells depend on it). Description: Cell antiproliferation assay (CellTiter-Glo), BaF3-LR_TM_CS. As to conditions: 48 h treatment, read-out: BaF3-LR_TM_CS IC50. The class given is cell-based. In outline: as §1
The target of assay [1] is EGFR(Dell9_T790M_C797S) (aa 669-1210, in house) (Homo sapiens, UniProt P00533, T790M/C797S, form not given). Put plainly: Biochemical EGFR inhibition assay (TR-FRET), Del19/T790M/C797S mutant. As to conditions: ATP at Km, 15 min pre-incubation, 60 min reaction; read-out: Del_TM_CS (Km ATP) IC50. Summed up: (§2)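 Recombinant kinase pre-incubated with compound 15 min at room temperature in 50 mM HEPES pH7.5, 10 mM MgCl2, 2 mM DTT, 1 mM EGTA, 0.1% BSA, 0.01% Tween-20; reaction started with ATP at Km plus biotin-poly GT, run 60 min at RT. HTRF read (665/620 nm); IC50 from four-parameter logistic fit.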
On the technique in general: Time-resolved FRET reads energy transfer from a long-lived donor to a nearby acceptor.

The target in the next assay is BaF3-WT cells (Homo sapiens, UniProt P00533). Description: Cell antiproliferation assay (CellTiter-Glo), BaF3-WT. The class given is cell-based. As to conditions: 48 h treatment, read-out: BaF3-WT IC50. In outline: as §1
The target in assay [2] is T1, EGFR (aa668-1210, Invitrogen) (Homo sapiens, UniProt P00533).
T1 construct: EGFR (aa668-1210, Invitrogen); purchased Invitrogen
Description: Biochemical EGFR inhibition assay (TR-FRET), wild-type EGFR. To be noted: ATP at Km, 15 min pre-incubation, 60 min reaction; read-out: WT (Km ATP) IC50. Summed up: as §2

The target in assay [3] is T2, EGFR(L858R_T790M_C797S) (aa695-end, Invitrogen) (Homo sapiens, UniProt P00533, C797S/L858R/T790M).
T2 construct: purchased Invitrogen
Description: Biochemical EGFR inhibition assay (TR-FRET), L858R/T790M/C797S mutant. To be noted: ATP at Km, 15 min pre-incubation, 60 min reaction; read-out: LR_TM_CS (Km ATP) IC50. Summed up:
as §2

Sequence of EGFR(Dell9_T790M_C797S) (aa 669-1210, in house) (P00533 with tags, fused parts or gaps DEL746-750/T790M/C797S, form open): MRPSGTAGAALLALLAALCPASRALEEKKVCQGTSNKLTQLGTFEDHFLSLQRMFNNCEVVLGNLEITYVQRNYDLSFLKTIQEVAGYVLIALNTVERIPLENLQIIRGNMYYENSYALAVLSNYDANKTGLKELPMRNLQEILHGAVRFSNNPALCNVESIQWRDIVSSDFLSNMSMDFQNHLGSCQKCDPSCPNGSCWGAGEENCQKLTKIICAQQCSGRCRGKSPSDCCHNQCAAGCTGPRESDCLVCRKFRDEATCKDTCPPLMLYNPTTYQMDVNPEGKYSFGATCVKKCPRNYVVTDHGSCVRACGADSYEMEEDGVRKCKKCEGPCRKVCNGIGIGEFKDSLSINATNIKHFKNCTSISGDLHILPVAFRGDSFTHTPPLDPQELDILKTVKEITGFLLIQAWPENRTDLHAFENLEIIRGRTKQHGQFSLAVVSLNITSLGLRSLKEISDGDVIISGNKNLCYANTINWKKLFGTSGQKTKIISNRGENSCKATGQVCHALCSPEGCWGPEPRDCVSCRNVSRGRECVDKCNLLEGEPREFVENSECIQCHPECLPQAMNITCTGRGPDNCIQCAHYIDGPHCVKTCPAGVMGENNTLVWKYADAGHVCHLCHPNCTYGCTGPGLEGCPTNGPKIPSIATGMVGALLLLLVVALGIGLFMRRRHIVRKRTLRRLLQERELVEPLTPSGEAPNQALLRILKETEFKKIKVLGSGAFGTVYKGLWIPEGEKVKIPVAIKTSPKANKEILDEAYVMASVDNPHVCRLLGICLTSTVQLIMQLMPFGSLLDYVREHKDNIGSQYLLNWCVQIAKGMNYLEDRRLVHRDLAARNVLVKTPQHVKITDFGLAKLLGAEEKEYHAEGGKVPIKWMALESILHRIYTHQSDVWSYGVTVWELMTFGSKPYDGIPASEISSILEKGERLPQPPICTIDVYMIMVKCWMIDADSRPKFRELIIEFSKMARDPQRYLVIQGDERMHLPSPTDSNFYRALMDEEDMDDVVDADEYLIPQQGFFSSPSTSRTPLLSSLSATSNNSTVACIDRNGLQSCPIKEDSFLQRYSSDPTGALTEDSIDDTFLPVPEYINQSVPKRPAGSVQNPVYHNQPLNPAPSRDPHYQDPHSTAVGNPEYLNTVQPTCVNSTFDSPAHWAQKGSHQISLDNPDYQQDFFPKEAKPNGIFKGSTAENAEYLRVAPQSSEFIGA
Sequence of BaF3-Del_TM_CS cells (P00533 with tags, fused parts or gaps DEL746-750/T790M/C797S, form open): as above
T2 sequence (P00533 695-1210 T790M/C797S/L858R): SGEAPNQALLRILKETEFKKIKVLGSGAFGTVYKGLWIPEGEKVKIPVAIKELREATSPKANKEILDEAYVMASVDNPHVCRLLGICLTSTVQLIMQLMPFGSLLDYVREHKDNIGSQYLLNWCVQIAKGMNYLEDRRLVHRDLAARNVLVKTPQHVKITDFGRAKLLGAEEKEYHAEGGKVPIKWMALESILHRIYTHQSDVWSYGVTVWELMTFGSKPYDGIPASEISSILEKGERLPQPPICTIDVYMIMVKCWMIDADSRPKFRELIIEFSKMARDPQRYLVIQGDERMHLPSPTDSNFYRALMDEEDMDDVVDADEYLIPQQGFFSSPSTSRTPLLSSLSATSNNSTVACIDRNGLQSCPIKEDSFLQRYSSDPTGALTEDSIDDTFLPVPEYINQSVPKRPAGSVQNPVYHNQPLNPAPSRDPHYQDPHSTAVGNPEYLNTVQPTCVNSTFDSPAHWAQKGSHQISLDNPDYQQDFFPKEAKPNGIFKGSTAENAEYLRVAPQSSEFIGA
Sequence of BaF3-WT cells (P00533 whole entry, change not shown, the tested form may be a part): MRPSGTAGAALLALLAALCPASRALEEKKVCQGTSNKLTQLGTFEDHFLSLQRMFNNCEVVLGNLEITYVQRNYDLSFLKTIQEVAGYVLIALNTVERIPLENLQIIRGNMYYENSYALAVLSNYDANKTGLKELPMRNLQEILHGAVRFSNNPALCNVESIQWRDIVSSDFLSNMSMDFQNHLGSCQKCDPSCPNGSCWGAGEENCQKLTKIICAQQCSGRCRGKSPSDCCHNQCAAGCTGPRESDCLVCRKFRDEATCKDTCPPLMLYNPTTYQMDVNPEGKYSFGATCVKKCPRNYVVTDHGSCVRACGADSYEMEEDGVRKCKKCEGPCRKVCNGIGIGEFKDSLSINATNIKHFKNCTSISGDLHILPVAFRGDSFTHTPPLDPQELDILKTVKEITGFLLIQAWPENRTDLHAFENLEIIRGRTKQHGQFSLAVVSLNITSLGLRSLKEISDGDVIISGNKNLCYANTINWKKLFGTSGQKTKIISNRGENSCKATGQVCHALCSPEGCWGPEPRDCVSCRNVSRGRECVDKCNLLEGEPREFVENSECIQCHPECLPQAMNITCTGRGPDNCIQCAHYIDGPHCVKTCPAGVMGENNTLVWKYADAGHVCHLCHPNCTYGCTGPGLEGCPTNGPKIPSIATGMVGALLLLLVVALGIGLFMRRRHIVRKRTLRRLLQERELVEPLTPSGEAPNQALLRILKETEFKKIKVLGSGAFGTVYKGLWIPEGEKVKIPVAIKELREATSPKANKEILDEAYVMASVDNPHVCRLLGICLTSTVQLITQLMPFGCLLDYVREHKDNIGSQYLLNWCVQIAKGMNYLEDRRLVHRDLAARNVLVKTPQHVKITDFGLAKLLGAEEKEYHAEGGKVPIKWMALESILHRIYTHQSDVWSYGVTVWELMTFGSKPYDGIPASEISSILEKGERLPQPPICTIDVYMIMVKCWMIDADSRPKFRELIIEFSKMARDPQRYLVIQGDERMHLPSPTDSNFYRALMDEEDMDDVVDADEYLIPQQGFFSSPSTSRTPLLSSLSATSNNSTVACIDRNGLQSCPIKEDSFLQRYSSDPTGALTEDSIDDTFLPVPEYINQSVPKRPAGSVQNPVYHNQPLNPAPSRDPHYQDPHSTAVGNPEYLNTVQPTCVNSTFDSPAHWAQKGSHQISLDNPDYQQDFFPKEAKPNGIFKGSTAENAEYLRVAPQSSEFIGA
T1 sequence (P00533 668-1210): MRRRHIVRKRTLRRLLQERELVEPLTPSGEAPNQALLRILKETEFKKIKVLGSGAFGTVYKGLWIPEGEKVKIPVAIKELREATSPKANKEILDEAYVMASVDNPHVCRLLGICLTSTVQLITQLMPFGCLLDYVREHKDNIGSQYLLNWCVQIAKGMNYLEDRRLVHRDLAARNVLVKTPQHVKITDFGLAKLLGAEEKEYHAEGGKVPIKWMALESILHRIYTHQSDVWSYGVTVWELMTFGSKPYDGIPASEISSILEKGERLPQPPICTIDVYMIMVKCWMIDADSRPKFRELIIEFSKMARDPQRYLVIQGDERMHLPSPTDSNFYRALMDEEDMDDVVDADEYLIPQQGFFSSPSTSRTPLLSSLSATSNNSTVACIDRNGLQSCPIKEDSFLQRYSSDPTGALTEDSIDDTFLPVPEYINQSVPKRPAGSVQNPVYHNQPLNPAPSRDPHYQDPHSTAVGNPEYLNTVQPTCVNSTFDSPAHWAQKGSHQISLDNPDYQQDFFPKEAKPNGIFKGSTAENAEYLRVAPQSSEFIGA

What is called IC50 is the concentration that gives 50% inhibition. On to `COc1cc(N2CCCN(C)CC2)c(C)cc1Nc1nc(Nc2cccc3c2N(S(C)(=O)=O)CC3)c2cc[nH]c2n1` [Example 101, N^2-(2-methoxy-5-methyl-4-(4-methyl-1,4-diazepan-1-yl)phenyl)-N^4-(1-(methylsulfonyl)indolin-7-yl)-7H-pyrrolo[2,3-d]pyrimidine-2,4-diamine], for which the GI50 at BaF3-Del_TM_CS cells turned out to be 58.9 nM; on BaF3-LR_TM_CS cells it was 157 nM; at BaF3-WT cells it was 1410 nM. In addition, the concentration for half-maximal inhibition (IC50) in assay [1] is 3.1 nM; in assay [2], 170 nM; in assay [3], 2 nM.
As for `COc1cc(N2C[C@H]3CN(C)C[C@H]3C2)c(C)cc1Nc1nc(Nc2cccc3c2N(S(C)(=O)=O)CC3)c2cc[nH]c2n1` [Example 102, N^2-(2-methoxy-5-methyl-4-((3aR,6aS)-5-methylhexahydropyrrolo[3,4-c]pyrrol-2(1H)-yl)phenyl)-N^4-(1-(methylsulfonyl)indolin-7-yl)-7H-pyrrolo[2,3-d]pyrimidine-2,4-diamine], the GI50 at BaF3-Del_TM_CS cells was determined as 30.4 nM; at BaF3-LR_TM_CS cells it was 314 nM; on BaF3-WT cells, 1710 nM. The concentration for half-maximal inhibition (IC50) in assay [1] was 2 nM; in assay [2] it was 66 nM; in assay [3] it was 1.1 nM.
Consider `COc1cc(N2CCC(N(C)C)CC2)c(C)cc1Nc1nc(Nc2cccc3c2N(S(C)(=O)=O)CC3)c2cc[nH]c2n1` [Example 103, N^2-(4-(4-(dimethylamino)piperidin-1-yl)-2-methoxy-5-methylphenyl)-N^4-(1-(methylsulfonyl)indolin-7-yl)-7H-pyrrolo[2,3-d]pyrimidine-2,4-diamine], for which the GI50 amounted to 25.6 nM on BaF3-Del_TM_CS cells, 76.7 nM at BaF3-LR_TM_CS cells and 1690 nM on BaF3-WT cells. In addition, the IC50 in assay [1] turned out to be 0.78 nM; in assay [2] it was 28 nM; in assay [3], 0.47 nM.
Turning to `COc1cc(C2CCC(N(C)C)CC2)c(C)cc1Nc1nc(Nc2cccc3c2N(S(C)(=O)=O)CC3)c2cc[nH]c2n1` (stereo not drawn) [Example 104, N^2-(4-(4-(dimethylamino)cyclohexyl)-2-methoxy-5-methylphenyl)-N^4-(1-(methylsulfonyl)indolin-7-yl)-7H-pyrrolo[2,3-d]pyrimidine-2,4-diamine], the GI50 was 128 nM on BaF3-Del_TM_CS cells, 195 nM on BaF3-LR_TM_CS cells and 1490 nM on BaF3-WT cells. For the same compound, the half-inhibitory concentration (IC50) was determined as 5.3 nM in assay [1], 332 nM in assay [2] and 3.4 nM in assay [3].
For `COc1cc(N2CCN(C)[C@@H](C)C2)c(C)cc1Nc1nc(Nc2cccc3c2N(S(C)(=O)=O)CC3)c2cc[nH]c2n1` [Example 105, (S)—N^2-(4-(3,4-dimethylpiperazin-1-yl)-2-methoxy-5-methylphenyl)-N^4-(1-(methylsulfonyl)indolin-7-yl)-7H-pyrrolo[2,3-d]pyrimidine-2,4-diamine], the GI50 is 87 nM at BaF3-Del_TM_CS cells, 240 nM at BaF3-LR_TM_CS cells and 2090 nM on BaF3-WT cells. Also, the IC50 in assay [1] was 10 nM; in assay [2], 455 nM; in assay [3], 5.3 nM.
For the compound `COc1cc(N2C[C@@H](C)N(C)[C@@H](C)C2)c(C)cc1Nc1nc(Nc2cccc3c2N(S(C)(=O)=O)CC3)c2cc[nH]c2n1` [Example 106, N^2-(2-methoxy-5-methyl-4-((3S,5R)-3,4,5-trimethylpiperazin-1-yl)phenyl)-N^4-(1-(methylsulfonyl)indolin-7-yl)-7H-pyrrolo[2,3-d]pyrimidine-2,4-diamine], the figures for the GI50 on BaF3-Del_TM_CS cells, at BaF3-LR_TM_CS cells and on BaF3-WT cells were 57.3 nM, 93.8 nM and 1790 nM, respectively. Besides, the half-maximal inhibitory concentration (IC50) in assay [1] was found to be 4.9 nM; in assay [2] it was 575 nM; in assay [3], 5.3 nM.
For `COc1cc(N2CCN(C)[C@H](C)C2)c(C)cc1Nc1nc(Nc2cccc3c2N(S(C)(=O)=O)CC3)c2cc[nH]c2n1` [Example 107, (R)—N2-(4-(3,4-dimethylpiperazin-1-yl)-2-methoxy-5-methylphenyl)-N4-(1-(methylsulfonyl)indolin-7-yl)-7H-pyrrolo[2,3-d]pyrimidine-2,4-diamine], the results for the GI50 on BaF3-Del_TM_CS cells, at BaF3-LR_TM_CS cells and on BaF3-WT cells were 60.8 nM, 105 nM and 1960 nM, respectively. Besides, the half-maximal inhibitory concentration (IC50) in assay [1] worked out at 7.1 nM; in assay [2], 417 nM; in assay [3] it was 4.8 nM.
`COc1cc(C2CCN(CCO)CC2)c(C)cc1Nc1nc(Nc2cccc3c2N(S(C)(=O)=O)CC3)c2cc[nH]c2n1` [Example 108, 2-(4-(5-methoxy-2-methyl-4-((4-((1-(methylsulfonyl)indolin-7-yl)amino)-7H-pyrrolo[2,3-d]pyrimidin-2-yl)amino)phenyl)piperidin-1-yl)ethan-1-ol]: the GI50 turned out to be 181 nM on BaF3-Del_TM_CS cells, 464 nM at BaF3-LR_TM_CS cells and 2140 nM on BaF3-WT cells. The IC50 in assay [1] was 2.2 nM; in assay [2] it was 104 nM; in assay [3], 1.9 nM.
As to `CN1CCN(c2ccc(Nc3nc(Nc4cccc5c4N(S(C)(=O)=O)CC5)c4cc[nH]c4n3)cn2)CC1` [Example 123, N^2-(6-(4-methylpiperazin-1-yl)pyridin-3-yl)-N^4-(1-(methylsulfonyl)indolin-7-yl)-7H-pyrrolo[2,3-d]pyrimidine-2,4-diamine], the GI50 at BaF3-Del_TM_CS cells stood at 64.3 nM; at BaF3-LR_TM_CS cells it was 169 nM; on BaF3-WT cells, 376 nM. For the same compound, the half-inhibitory concentration (IC50) was 6.3 nM in assay [1], 573 nM in assay [2] and 4.8 nM in assay [3].
As to `CN(C)C1CCN(c2ccc(Nc3nc(Nc4cccc5c4N(S(C)(=O)=O)CC5)c4cc[nH]c4n3)c3c2CCO3)CC1` [Example 124, N^2-(4-(4-(dimethylamino)piperidin-1-yl)-2,3-dihydrobenzofuran-7-yl)-N^4-(1-(methylsulfonyl)indolin-7-yl)-7H-pyrrolo[2,3-d]pyrimidine-2,4-diamine], the results for the GI50 on BaF3-Del_TM_CS cells, at BaF3-LR_TM_CS cells and at BaF3-WT cells were 39.1 nM, 106 nM and 460 nM, respectively. In addition, the IC50 turned out to be 1 nM in assay [1], 107 nM in assay [2] and 1 nM in assay [3].
In the case of `CN1CCN(C2CCN(c3ccc(Nc4nc(Nc5cccc6c5N(S(C)(=O)=O)CC6)c5cc[nH]c5n4)c4c3CCO4)CC2)CC1` [Example 125, N^2-(4-(4-(4-methylpiperazin-1-yl)piperidin-1-yl)-2,3-dihydrobenzofuran-7-yl)-N^4-(1-(methylsulfonyl)indolin-7-yl)-7H-pyrrolo[2,3-d]pyrimidine-2,4-diamine], the GI50 on BaF3-Del_TM_CS cells was found to be 38.3 nM; at BaF3-LR_TM_CS cells it was 61.3 nM; on BaF3-WT cells, 394 nM. Moreover, the IC50 in assay [1] came to 1.6 nM; in assay [2] it was 106 nM; in assay [3] it was 1.2 nM.
